Reference: patent US6610516B1, “Cell culture process” (Genentech, Inc., priority 1999, dated 2003)

Legend:
[1] = tested on: t-PA site occupancy at Asn-184; experiment: Type I/Type II t-PA assay (RP-HPLC) of supernatant from rht-PA-producing CHO cell cultures; assay type: cell-based, Chinese Hamster; details: for Increase of t-PA site-occupancy: 1, 10 or 100 nM hormone, day 7 (FIG. 13); for t-PA site-occupancy, effect of nucleotide sugar precursors: increased availability; for t-PA site-occupancy, effect of nucleotide sugar precursors / Decrease of t-PA site occupancy at 500 µM: days 4-6 (FIG. 12); for Decrease of t-PA site occupancy at 500 µM: Cricetulus griseus, CHO, 0.5 mM each; for t-PA site-occupancy, effect of further butyrate increase: 1.5 mM butyrate; for t-PA site occupancy compared to control with no cell-cycle inhibitor: 3-4 days, quinidine 90 μM, thymidine 250 μg/mL at inoculation (FIG. 9)
Description: Type I/Type II t-PA assay:
1. Thaw cell culture supernatant sample (If whole broth, spin out cells in centrifuge.)
2. Add 2 μl freshly thawed plasminogen to 400 μl of sample.
3. Incubate at 37° C. for 60 minutes.
4. Add 20 μl freshly-thawed 1 M DTT and 400 μl 8 M guanidine-HCl/50 mM TRIS/3.2 mM EDTA solution.
5. Incubate at 37° C. for 15 minutes.
6. Transfer to vial and load 250 μl for assay on HP 1090™ HPLC using the following conditions:
ZORBAX™ C8 column at 40° C.;
Monitoring of eluents by fluorescence (excitation at 275 nm, emission at 340 nm);
Running each sample with the following 70-minute method where eluent A is 0.1% trifluoroacetic acid (TFA) in water and eluent B is 0.1% TFA in acetonitrile:
5 to 35 min.—a linear gradient from 75% A to 60% A
45 min. to 70 min.—75% A to re-equilibrate the column
Type I/Type II fragments elute after approximately 25 minutes, and peak areas are integrated to determine relative quantities.
Recombinant ht-PA-producing CHO cells were carried in spinner flasks passaged every 3 or 4 days (at a density of 0.1% packed cell volume (PCV)) in selective medium (PS-20 basal medium supplemented with […] methotrexate, 10 mg/L recombinant human insulin (rh-insulin), 0.1 ml/L trace elements, and 0.05 ml/L lipid-ethanol). Sufficient culture was removed to seed 15 ml of medium at 0.2% PCV, and placed in a 50 ml sterile Falcon tube. The culture was centrifuged for 10 minutes at 700-1000 rpm and the supernatant was poured off. Upon addition of 15 ml of fresh selective medium, the culture was agitated gently to resuspend cells. Five ml of culture was placed in three T-25 flasks (25 cm^2 T-flasks). The caps were left loosened to allow equilibration with incubator atmosphere and the flasks were placed in a 33° C. or 31° C. incubator with 5% carbon dioxide. After 5 to 8 days of incubation, the cells were counted using a hemacytometer and/or by checking packed cell volume, and viability was checked using trypan blue. The culture was removed from the flasks, centrifuged for 10 minutes at 2000-2200 rpm, and the supernatant was assayed for rht-PA glycosylation. Alternatively to the T-25 flasks, the cells were cultured using 60-mm cell culture plates in triplicates.
The mini-fermentor experiments were performed under standard t-PA production conditions in fed-batch mode as noted herein in 5-liter stirred tank bioreactors (Applikon, Foster City, Calif.). The temperature was shifted to 33° C. or 31° C. on day 2 of the production phase.
(§1) The quantity of cells needed for a 0.2% packed cell volume seed density was centrifuged at approximately 700×g for 10 minutes, and resuspended in 25 cm^2 T-flasks in the appropriate fresh medium for each test case. The T-flasks were set up in triplicate with 5 mL in each flask and incubated for 3 to 4 days at 37° C. and 95% air 5% CO2. Sodium butyrate was added to a concentration of 0.375 mM, 0.75 mM, or 1.5 mM at the time of inoculation for the 25 cm^2 T-flasks. Cells were also cultured in spinner flasks at volumes of 100 ml with similar butyrate concentrations to the T-flask cases. For fermentor experiments, butyrate was added on the second day of the experiments. T-flask cultures were also carried out at 33° C. and 37° C. with no butyrate additions. […] T-PA site-occupancy was analyzed using the method of Example 1.
(§2) Cells were cultured as for the sodium butyrate experiment described in Example 2. Thymidine was dissolved in water and sterile filtered for a 33-36× stock solution. […] T-PA site-occupancy was analyzed using the method of Example 1.
All experiments were done in 60-mm culture dishes using the procedure described in Example 1 except that a Mn salt, Fe salt, nucleotide sugar precursor, or hormone was added to the growth medium during the growth phase, with Mn or Fe salt or nucleotide sugar precursor added on day 1.

fibrin = details: in vitro; cited from earlier work
CHO cells = experiment: Cell-cycle analysis (propidium iodide flow cytometry) of rht-PA-producing CHO cell cultures; assay type: cell-based, Chinese Hamster; details: T-flasks, 37° C., thymidine 250 μg/mL; for Cells in G0/G1 phase: 3-4 days, added at inoculation: quinidine 90 μM, control 53.91%; for Cells in S phase: control 34.37%
From the text: As used herein, a “cell-cycle inhibitor that blocks cells in the G0/G1 phase of growth” is a molecule that causes cells to accumulate in the G0/G1 phase of growth. This can be determined by cell cycle analysis, i.e., uniform suspensions of nuclei are stained with propidium iodide (PI) using the detergent-trypsin method of Vindelov et al., Cytometry, 3: 323-327 (1983) to determine relative cellular DNA content by flow cytometric analysis. Events are gated using doublet discrimination to exclude doublets, and the data are modeled using ModFit LT Cell Cycle Analysis™ software (Verity Software House).
as §1, §2

With `N[C@@H](Cc1cc(I)c(Oc2ccc(O)c(I)c2)c(I)c1)C(=O)O` [tri-iodothyronine] the “Increase of t-PA site-occupancy” value ([1]; 60-mm dishes, 37° C.) was “about 2%”.

In the case of `O=c1[nH]cnc2nc[nH]c12` [hypoxanthine], the “t-PA site-occupancy, effect of nucleotide sugar precursors” value ([1]; 60-mm dishes, 37° C.) is reported as “did not improve site-occupancy”.

Work on `Nc1nc2c(ncn2[C@@H]2O[C@H](CO)[C@@H](O)[C@H]2O)c(=O)[nH]1` [guanosine] yielded a Decrease of t-PA site occupancy at 500 µM ([1]; 60-mm dishes, 37° C.) of about 2%.

In the case of `CCCC(=O)[O-].[Na+]` [sodium butyrate], the “Increase of Type I content compared to no butyrate” value ([1]; 0.75 mM butyrate, 60-mm culture plates (FIG. 6)) is reported as “about 1%”, the “t-PA site-occupancy, effect of further butyrate increase” value ([1]; 31° C., 60-mm culture plates (FIG. 6)) is reported as “increased it” and the “t-PA site-occupancy, effect of further butyrate increase” value ([1]; 37° C. and 33° C., 60-mm culture plates (FIG. 6)) is reported as “lowered site-occupancy”. The “t-PA site-occupancy, effect of butyrate” value ([1]; 0.375 to 1.5 mM at inoculation, T-flasks, 37° C. (FIG. 5)) was “increased t-PA site-occupancy” and the “Type I content, effect of increasing butyrate from 0.75 to 1.5 mM” value ([1]; 5-liter bioreactors, days 5-7, 37° C. and 33° C. (FIG. 7)) was “decreased the Type I content”.

For “t-PA: human tissue-type plasminogen activator, recombinant, produced in CHO cells; mixture of Type I and Type II glycoforms”, the “Kd of binding to fibrin” value (fibrin) is listed as “in the μM range”.

For `N[C@@H](Cc1cc(I)c(Oc2cc(I)c(O)c(I)c2)c(I)c1)C(=O)O` [thyroxine], the “Increase of t-PA site-occupancy” value ([1]; 60-mm dishes, 37° C.) was “about 2%”.

In the case of `NCC(=O)O` [glycine], the “t-PA site-occupancy, effect of nucleotide sugar precursors” value ([1]; 60-mm dishes, 37° C.) is reported as “did not improve site-occupancy”.

In the case of `[Cl][Mn][Cl]` [manganese, MnCl2], the “Increase of t-PA Type I content (site-occupancy) over 3 nM control” value ([1]; MnCl2 10 nM-100 μM, 60-mm dishes, 37° C., days 4-6 (FIG. 10)) is reported as “about 2.5%”.

For `C=C[C@H]1C[N@@]2CC[C@H]1C[C@@H]2[C@@H](O)c1ccnc2ccc(OC)cc12` [Quinidine, quinidine], the “t-PA site occupancy compared to control with no cell-cycle inhibitor” value ([1]; T-flasks, 37° C.) was “increased site occupancy”, the “Cells in G0/G1 phase” value (CHO cells) was 67.34% at 84.65 and the “Cells in G0/G1 phase” value (CHO cells; listed as quinidine) was 67%. For the same compound, the “Cells in S phase” value (CHO cells; quinidine 90 μM) was 24.11%.

`O=c1ccn([C@@H]2O[C@H](CO)[C@@H](O)[C@H]2O)c(=O)[nH]1` [uridine] gave a Decrease of t-PA site occupancy at 500 µM ([1]; 60-mm dishes, 37° C.) of about 2%.

With ferric citrate the “Increase of t-PA site occupancy” value ([1]; 10-100 μM ferric citrate, 60-mm dishes, 37° C., days 4-6 (FIG. 11)) was “up to 4%”.

In the case of `Cc1cn([C@H]2C[C@H](O)[C@@H](CO)O2)c(=O)[nH]c1=O` [Thymidine, thymidine], the “t-PA site occupancy compared to control with no cell-cycle inhibitor” value ([1]; T-flasks, 37° C.) is reported as “decreased site occupancy”, the “t-PA site-occupancy, effect of nucleotide sugar precursors” value ([1]; 60-mm dishes, 37° C.) is reported as “did not improve site-occupancy” and the “Cells in G0/G1 phase” value (CHO cells) is reported as 32.58% at 84.60. For the same compound, the “Cells in G0/G1 phase” value (CHO cells; listed as thymidine) was 33%, the “Cells in G2-M phase” value (CHO cells; quinidine 90 μM, control 11.72%) was 10.09% at 165.36 and the “Cells in S phase” value (CHO cells; quinidine 90 μM) was 57.33%.
